Tests used:
Assay type in all cases: in vivo
Solanum nigrum = experiment: Examples 6-8 herbicidal effect: SOLNI; conditions: 7 DAA
Poa annua = experiment: Examples 6-8 herbicidal effect: POAAN; conditions: 7 DAA
Digitaria sanguinalis = experiment: Examples 6-8 herbicidal effect: DIGSA; conditions: 7 DAA
Matricaria chamomilla = experiment: Examples 6-8 herbicidal effect: MATCH; conditions: 7 DAA
Setaria verticillata = experiment: Examples 6-8 herbicidal effect: SETVE; conditions: 7 DAA
Echinochloa crus-galli = experiment: Examples 6-8 herbicidal effect: ECHCG; conditions: 7 DAA
Veronica persica = experiment: Examples 6-8 herbicidal effect: VERPE; conditions: 7 DAA
Chenopodium album [1] = experiment: Examples 6-8 herbicidal effect: CHEAL; conditions: 7 DAA
Geranium dissectum = experiment: Examples 6-8 herbicidal effect: GERDI; conditions: 7 DAA
Bassia scoparia = experiment: Field trial post-emergence in maize: KCHSC; conditions: 13-14 DAA; # = 2; g a.c./ha: PYR 450, TEM 38, PYR + TEM 450 + 38
Protocol: (§1) Herbicidal activity of herbicide compositions according to the first aspect of the present invention with regard to different types of unwanted vegetation was determined during trials performed on test fields (field trials). Individual compositions comprising pyridate and individual compositions comprising a defined 4-HPPD inhibitor are compared with a herbicide composition according to the invention comprising both pyridate and a defined 4-HPPD inhibitor. The expected activity of the combination of the active compounds pyridate and a defined 4-HPPD inhibitor is calculated according to above mentioned calculation method by Colby, in order to evaluate a synergistic effect between pyridate and a defined 4-HPPD inhibitor.
(§2) Herbicidal activity was determined by applying herbicide compositions on emerged unwanted vegetation on fields where maize was cultivated. Pyridate and a defined 4-HPPD inhibitor were applied as a tank mixture by mixing these active compounds prior to use in a spray tank. The corresponding mixture was in the form of a spray liquor. […] At a specified number of days after application (DAA), the degree of damage to the unwanted vegetation is rated in % of plants of unwanted vegetation that were killed, which was assessed by visually controlling the plants.

Lamium amplexicaule = experiment: Example 6 herbicidal effect: LAMAM; conditions: 7 DAA
Chenopodium album [2] = experiment: Field trial post-emergence in maize: CHEAL; conditions: 13-14 DAA, # = 1
Protocol: as §1
(§3) Herbicidal activity was determined by applying herbicide compositions on emerged unwanted vegetation on fields where maize was cultivated. Pyridate and a defined 4-HPPD inhibitor were applied as a tank mixture by mixing these active compounds prior to use in a spray tank. The corresponding mixture was in the form of a spray liquor. Besides, spray liquors of individual compositions comprising pyridate and of individual compositions comprising a defined 4-HPPD inhibitor were used. Test plants of unwanted vegetation with a growth stage corresponding to BBCH 10-18 (according to the extended BBCH-scale) were sprayed with the active compound preparations such that particular desired amounts of active compounds are applied per unit area. Spray liquor was diluted with water to arrive at an application volume of 50 to 450 L/ha. At a specified number of days after application (DAA), the degree of damage to the unwanted vegetation is rated in % of plants of unwanted vegetation that were killed, which was assessed by visually controlling the plants.

[3] = tested on: Brassica rapa Canola cultivars; experiment: Field trial post-emergence in maize: BRSRC; conditions: 13-14 DAA; # = 1; g a.c./ha: PYR 450, TOP 12.4, PYR + TOP 450 + 12.4
Protocol: as §1, §3

Amaranthus retroflexus = experiment: Field trial post-emergence in maize: AMARE; conditions: 13-14 DAA; # = 1; g a.c./ha: PYR 450, TOP 12.4, PYR + TOP 450 + 12.4
Protocol: as §1, §3

Sinapis arvensis = experiment: Field trial post-emergence in maize: SINAR; conditions: 13-14 DAA; # = 1; g a.c./ha: PYR 450, TOP 12.4, PYR + TOP 450 + 12.4
Protocol: as §1, §2

[4] = g a.c./ha: PYR 300, SCT 300, PYR + SCT 300 + 300
[5] = g a.c./ha: PYR 450, SCT 450, PYR + SCT 300 + 450
[6] = g a.c./ha: PYR 10, TEM 22, PYR + TEM 10 + 100
[7] = g a.c./ha: PYR 300, TEM 100, PYR + TEM 300 + 100
[8] = g a.c./ha: PYR 900, TEM 44, PYR + TEM 900 + 44
[9] = g a.c./ha: SMO 800, PYR + NIC 300 + 30

CS(=O)(=O)c1ccc(C(=O)C2C(=O)CCCC2=O)c(Cl)c1 [SCT, 2-[2-Chloro-4-(methylsulfonyl)benzoyl]cyclohexane-1,3-dione]
herbicidal effect (h.e.) (Solanum nigrum; [4]): 53% | herbicidal effect (h.e.) (Solanum nigrum; [5]): 53% | herbicidal effect (h.e.) (Poa annua; [4]): 3% | herbicidal effect (h.e.) (Poa annua; [5]): 3% | herbicidal effect (h.e.) (Digitaria sanguinalis; [4]): 60% | herbicidal effect (h.e.) (Digitaria sanguinalis; [5]): 53% | herbicidal effect (h.e.) (Matricaria chamomilla; [4]): 28% | herbicidal effect (h.e.) (Matricaria chamomilla; [5]): 25% | herbicidal effect (h.e.) (Setaria verticillata; [4]): 2% | herbicidal effect (h.e.) (Setaria verticillata; [5]): 2% | herbicidal effect (h.e.) (Echinochloa crus-galli; [4]): 58% | herbicidal effect (h.e.) (Echinochloa crus-galli; [5]): 60% | herbicidal effect (h.e.) (Veronica persica; [4]): 83% | herbicidal effect (h.e.) (Veronica persica; [5]): 80% | herbicidal effect (h.e.) (Chenopodium album [1]; [4]): 30% | herbicidal effect (h.e.) (Chenopodium album [1]; [5]): 45% | herbicidal effect (h.e.) (Geranium dissectum; [4]): 28% | herbicidal effect (h.e.) (Geranium dissectum; [5]): 50%

CS(=O)(=O)c1ccc(C(=O)C2C(=O)CCCC2=O)c(Cl)c1COCC(F)(F)F [TEM, 2-[2-chloro-4-methylsulfonyl-3-(2,2,2-trifluoroethoxymethyl)benzoyl]cyclohexane-1,3-dione]
herbicidal effect (h.e.) (Solanum nigrum; [6]): 40% | herbicidal effect (h.e.) (Solanum nigrum; [7]): 80% | herbicidal effect (h.e.) (Solanum nigrum; [8]): 85% | herbicidal effect (h.e.) (Poa annua; [6]): 10% | herbicidal effect (h.e.) (Poa annua; [7]): 32% | herbicidal effect (h.e.) (Poa annua; [8]): 13% | herbicidal effect (h.e.) (Digitaria sanguinalis; [6]): 59% | herbicidal effect (h.e.) (Digitaria sanguinalis; [7]): 99% | herbicidal effect (h.e.) (Digitaria sanguinalis; [8]): 95% | herbicidal effect (h.e.) (Matricaria chamomilla; [6]): 15% | herbicidal effect (h.e.) (Matricaria chamomilla; [7]): 100% | herbicidal effect (h.e.) (Matricaria chamomilla; [8]): 70% | herbicidal effect (h.e.) (Setaria verticillata; [6]): 0% | herbicidal effect (h.e.) (Setaria verticillata; [7]): 100% | herbicidal effect (h.e.) (Setaria verticillata; [8]): 18% | herbicidal effect (h.e.) (Bassia scoparia): 40% | herbicidal effect (h.e.) (Echinochloa crus-galli; [6]): 83% | herbicidal effect (h.e.) (Echinochloa crus-galli; [7]): 85% | herbicidal effect (h.e.) (Echinochloa crus-galli; [8]): 95% | herbicidal effect (h.e.) (Veronica persica; [6]): 8% | herbicidal effect (h.e.) (Veronica persica; [7]): 53% | herbicidal effect (h.e.) (Veronica persica; [8]): 53% | herbicidal effect (h.e.) (Lamium amplexicaule; [6]): 25% | herbicidal effect (h.e.) (Lamium amplexicaule; [7]): 40% | herbicidal effect (h.e.) (Lamium amplexicaule; [8]): 100% | herbicidal effect (h.e.) (Chenopodium album [1]; [6]): 68% | herbicidal effect (h.e.) (Chenopodium album [1]; [7]): 78% | herbicidal effect (h.e.) (Chenopodium album [1]; [8]): 96% | herbicidal effect (h.e.) (Geranium dissectum; [6]): 8% | herbicidal effect (h.e.) (Geranium dissectum; [7]): 33% | herbicidal effect (h.e.) (Geranium dissectum; [8]): 20% | herbicidal effect (h.e.) (Chenopodium album [2]; g a.c./ha: PYR 450, TEM 38, PYR + TEM 450 + 38): 0%

CCc1cccc(C)c1N(C(=O)CCl)[C@@H](C)COC [SMO, S-metolachlor]
herbicidal effect (h.e.) (Solanum nigrum; [9]): 3% | herbicidal effect (h.e.) (Poa annua; [9]): 0% | herbicidal effect (h.e.) (Digitaria sanguinalis; [9]): 0% | herbicidal effect (h.e.) (Matricaria chamomilla; [9]): 0% | herbicidal effect (h.e.) (Setaria verticillata; [9]): 0% | herbicidal effect (h.e.) (Echinochloa crus-galli; [9]): 0% | herbicidal effect (h.e.) (Veronica persica; [9]): 5% | herbicidal effect (h.e.) (Chenopodium album [1]; [9]): 1% | herbicidal effect (h.e.) (Geranium dissectum; [9]): 0%

COc1cc(OC)nc(NC(=O)NS(=O)(=O)c2ncccc2C(=O)N(C)C)n1 [NIC, nicosulfuron]
herbicidal effect (h.e.) (Solanum nigrum; NIC 30 g a.c./ha): 17% | herbicidal effect (h.e.) (Poa annua; NIC 30 g a.c./ha): 75% | herbicidal effect (h.e.) (Digitaria sanguinalis; NIC 30 g a.c./ha): 32% | herbicidal effect (h.e.) (Matricaria chamomilla; NIC 30 g a.c./ha): 6% | herbicidal effect (h.e.) (Setaria verticillata; NIC 30 g a.c./ha): 37% | herbicidal effect (h.e.) (Echinochloa crus-galli; NIC 30 g a.c./ha): 38% | herbicidal effect (h.e.) (Veronica persica; NIC 30 g a.c./ha): 7% | herbicidal effect (h.e.) (Chenopodium album [1]; NIC 30 g a.c./ha): 24% | herbicidal effect (h.e.) (Geranium dissectum; NIC 30 g a.c./ha): 33%

Cc1c(C(=O)c2c[nH]n(C)c2=O)ccc(S(C)(=O)=O)c1C1=NOCC1 [TOP, 4-[3-(4,5-dihydro-1,2-oxazol-3-yl)-2-methyl-4-methylsulfonylbenzoyl]-2-methyl-1H-pyrazol-3-one]
herbicidal effect (h.e.) [3]: 50% | herbicidal effect (h.e.) (Amaranthus retroflexus): 18% | herbicidal effect (h.e.) (Sinapis arvensis): 50% | herbicidal effect (h.e.) (Chenopodium album [2]; g a.c./ha: PYR 450, TOP 12.4, PYR + TOP 450 + 12.4): 1%
